Source: patent US6900221B1, “Stable polymorph on N-(3-ethynylphenyl)-6, 7-bis (2methoxyethoxy)-4-quinazolinamine hydrochloride, methods of production, and pharmaceutical uses thereof” (OSI Pharmaceuticals, Inc., priority 1999, dated 2005)

Assays:
[1] = Thermodynamic stability of the polymorphic forms; format: physicochemical; settings: hydrochloride polymorph forms compared
[2] = Solubility in aqueous compositions; format: physicochemical; settings: compared with the hydrochloride compound
[3] = tested on: cancer patients with multiple tumor types; test: Phase I clinical studies, preliminary evidence of effectiveness in cancer patients; format: in vivo, human; settings: one Phase I study of 28 patients
[4] = tested on: refractory non-small cell lung cancer (NSCLC); settings: 150 mg daily, first 19 evaluable patients
Text: Qualification criteria for the open label, single agent study required the patients to have failed platinum-based chemotherapy and to have tumors that are histopathologically confirmed to be EGFR positive. The primary endpoint in the study is response rate with stable disease and time-to-progression amongst the secondary end-points.

[5] = tested on: advanced head and neck cancer; test: Phase II single agent study in advanced head and neck cancer; settings: 150 mg daily
[6] = tested on: refractory ovarian cancer; test: Phase II single agent study in refractory ovarian cancer; format: in vivo, human; settings: 150 mg daily, preliminary results
Text: Evidence of anti-tumor activity can also be seen in the patients with ovarian cancer in the on-going Phase II study.

[7] = Phase I clinical studies, safety; format: in vivo, human
Method: […]. […] In a daily dosing regimen study the dose limiting toxicity at 200 mg/day was diarrhea. This observed side effect was effectively controlled at the 150 mg daily dose level using Loperamide (Imodium®). […] The rash has a unique histopathology of PMN infiltration with mild epidermal hyperproliferation. It is not consistent with drug hypersensitivity nor does it appear to be a “named” dermatological condition. This rash has not been a significant impediment to patients staying on the Phase II trials. […]. […] For example, in one Phase I study of 28 patients, 8 patients remain alive over a year after inception of treatment and 12 patients remained alive from 9-22 months.

[8] = advanced head and neck cancer, preliminary results

For `C#Cc1cccc(Nc2ncnc3cc(OCCOC)c(OCCOC)cc23)c1.Cl` [hydrochloride compound, [6,7-bis(2-methoxyethoxy)-quinazolin-4-yl]-(3-ethynylphenyl)amine hydrochloride, reference compound], the thermodynamic stability [1] was “partially reduced stability”.
In the case of `C#Cc1cccc(Nc2ncnc3cc(OCCOC)c(OCCOC)cc23)c1` [mesylate compounds, N-(3-ethynylphenyl)-6,7-bis(2-methoxyethoxy)-4-quinazolinamine], the “solubility in aqueous compositions” value [2] was “more soluble”.
With `C#Cc1cccc(Nc2ncnc3cc(OCCOC)c(OCCOC)cc23)c1.Cl` [polymorph A, N-(3-ethynylphenyl)-6,7-bis(2-methoxyethoxy)-4-quinazolinamine hydrochloride] the thermodynamic stability [1] was “thermodynamically less stable”.
For `C#Cc1cccc(Nc2ncnc3cc(OCCOC)c(OCCOC)cc23)c1.Cl` [polymorph B, N-(3-ethynylphenyl)-6,7-bis(2-methoxyethoxy)-4-quinazolinamine hydrochloride], the “patients alive over a year after inception of treatment” value [3] was 8 patients, the “patients remained alive from 9-22 months” value [3] was 12 patients and the “patients with objective partial responses” value [4] was 5 patients. For the same molecule, the “patients with stabilization of disease status” value (“patients with stabilization” for short) [4] was 4 patients, the “patients with objective partial responses” value [5, 8] was 3 patients and the “patients with stabilization” value [5, 8] was 9 patients. For the same molecule, the “patients reporting acneiform rash” value ([5]; first group of patients in the head and neck cancer study) was “approximately 70%”, the “patients with objective partial responses” value [6] was 2 patients and the “patients with stabilization” value [6] was 4 patients. The thermodynamic stability [1] was “thermodynamically most stable”, the most significant toxicity ([7]; 150 mg daily) was “monomorphic acneiform rash” and the “severity of adverse events” value ([7]; Phase I, volunteers and cancer patients, dose of 150 mg/day) was “no adverse events that were greater than moderate in severity”. For the same molecule, the dose limiting toxicity ([7]; daily dosing regimen study, 200 mg/day) was “diarrhea” and the safety profile ([7]; total of 290 patients in Phase I and ongoing Phase II studies) was “well tolerated safety profile”.
